Data on ten compounds can be found in ChEMBL document CHEMBL1201862, “PubChem BioAssay data set” (2004).

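Following 48 hours of exposure in 96-well plates, responses at five concentrations were used to interpolate endpoints linearly. The concentration for 50% growth inhibition is given as GI50.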 Activity calls are given as the source filed them. No stated cut-off is given here; in the data, active = GI50 up to about 1.1 µM and inactive = higher. Some results are limits rather than exact numbers.

Test systems include 786-0; A498; A549; ACHN; BT-549; CAKI-1; COLO 205; DU-145; HCT-116; HL-60; IGROV-1; K562; MCF7; MDA-MB-435; MOLT-4; NCI-H460; NCI-H522; OVCAR-5; U-251; SK-OV-3.
Test in all cases: NCI-60 cell line screen, 48 h

As to `Cc1ccc([N+](=O)[O-])c2c(NCCCN(C)C)ccnc12`, the GI50 in the assay with 786-0 is 44.8 µM (inactive); with A498 it was 61.4 µM (inactive); with A549, > 92 µM (inactive); with ACHN it was 57 µM (inactive); with BT-549 it was > 100 µM (inactive); in the assay on CAKI-1, > 89.5 µM (inactive). Besides, the GI50 is 15 µM (inactive) in the assay on COLO 205; > 100 µM (inactive) in the assay with DU-145; 45.6 µM (inactive) in the assay with HCT-116; 47.1 µM (inactive) with HL-60; 30 µM (inactive) with IGROV-1; 70.8 µM (inactive) in the assay with K562. The GI50 was 39.4 µM (inactive) with MCF7; 21.6 µM (inactive) with MDA-MB-435; > 100 µM (inactive) with MOLT-4; 23.2 µM (inactive) in the assay on NCI-H460; 19.6 µM (inactive) in the assay with NCI-H522; > 100 µM (inactive) in the assay with OVCAR-5. Further, in the assay with U-251, the GI50 is 87.3 µM (inactive).

With `C[C@@H]1CC[C@@H]2[C@@H](C1)O[C@@H]([C@@H](C)OCc1ccccc1)SC2(C)C`, the GI50 in the assay with 786-0 is 19.2 µM (inactive); in the assay with A498, 17.3 µM (inactive); in the assay with A549, 29.9 µM (inactive); with ACHN, 17.3 µM (inactive); with BT-549, 22.1 µM (inactive); in the assay on CAKI-1, 14.9 µM (inactive). In addition, the GI50 in the assay on COLO 205 was 17.6 µM (inactive); in the assay on DU-145, 30.8 µM (inactive); in the assay with HCT-116, 18.3 µM (inactive); in the assay on IGROV-1, 23.1 µM (inactive); with K562 it was 18.1 µM (inactive); in the assay on MCF7, 18.7 µM (inactive). The GI50 was 16.9 µM (inactive) with MDA-MB-435; 16.1 µM (inactive) in the assay on MOLT-4; 20.9 µM (inactive) in the assay on NCI-H460; 14.8 µM (inactive) in the assay on NCI-H522; 18.3 µM (inactive) in the assay with OVCAR-5; 24.9 µM (inactive) in the assay on SK-OV-3. Also, the GI50 in the assay with U-251 is 17.5 µM (inactive).

As to `Cc1c(OCc2cccc3ccccc23)ccc2c(O)cc(=S)oc12`, the GI50 is 41.8 µM (inactive) with 786-0; 82.2 µM (inactive) with A498; 55.7 µM (inactive) in the assay with A549; 34.2 µM (inactive) with ACHN; 30.9 µM (inactive) in the assay with BT-549; 43 µM (inactive) in the assay on CAKI-1. Besides, the GI50 was 31.4 µM (inactive) with COLO 205; 36.2 µM (inactive) in the assay on DU-145; 26.7 µM (inactive) with HCT-116; 19.4 µM (inactive) with HL-60; 42.6 µM (inactive) in the assay on IGROV-1; 36.1 µM (inactive) with K562. The GI50 in the assay with MCF7 was 45.7 µM (inactive); in the assay with MDA-MB-435 it was 30.1 µM (inactive); in the assay with MOLT-4 it was 32 µM (inactive); in the assay on NCI-H460, 31.8 µM (inactive); in the assay on NCI-H522, 23.4 µM (inactive); in the assay on OVCAR-5 it was 54.1 µM (inactive). Besides, the GI50 in the assay with U-251 was 35.6 µM (inactive).

In the case of `O=C1CCCC1CC(CN1CCOCC1)Sc1nnnn1-c1ccccc1` (centres undefined), the GI50 was > 100 µM (inactive) in the assay with 786-0; > 100 µM (inactive) in the assay on A498; > 100 µM (inactive) in the assay with A549; 31 µM (inactive) with ACHN; > 100 µM (inactive) in the assay with BT-549; 16.8 µM (inactive) in the assay with CAKI-1. The GI50 in the assay on COLO 205 was 16.6 µM (inactive); in the assay with DU-145 it was 77.4 µM (inactive); in the assay on HCT-116, > 100 µM (inactive); in the assay with HL-60 it was 16.7 µM (inactive); in the assay on IGROV-1, > 100 µM (inactive); in the assay with K562 it was > 100 µM (inactive). In addition, the GI50 in the assay with MCF7 was 18.2 µM (inactive); with MDA-MB-435 it was > 100 µM (inactive); in the assay with MOLT-4, > 100 µM (inactive); in the assay on NCI-H522, > 100 µM (inactive); in the assay on OVCAR-5 it was 72.6 µM (inactive); with SK-OV-3, > 100 µM (inactive). Moreover, in the assay with U-251, the GI50 is > 100 µM (inactive).

Regarding `Nc1nccc(NCC2(CO)CC(CCc3ccccc3)C2)n1` (centres undefined), the GI50 in the assay on 786-0 was 14.6 µM (inactive); in the assay on A498, 13.2 µM (inactive); in the assay on A549, 13 µM (inactive); in the assay on ACHN it was 13.9 µM (inactive); in the assay on BT-549, 21.3 µM (inactive); in the assay with CAKI-1 it was 11.8 µM (inactive). Also, the GI50 in the assay with COLO 205 is 13.2 µM (inactive); in the assay on DU-145, 12.4 µM (inactive); in the assay on HCT-116, 10.8 µM (inactive); with HL-60, 6.18 µM (inactive); with IGROV-1 it was 13.2 µM (inactive); in the assay with K562, 4.74 µM (inactive). Further, the GI50 is 10 µM (inactive) in the assay with MCF7; 13.7 µM (inactive) in the assay on MDA-MB-435; 7.98 µM (inactive) in the assay with MOLT-4; 12.3 µM (inactive) in the assay with NCI-H460; 11.8 µM (inactive) in the assay on NCI-H522; 14 µM (inactive) with OVCAR-5. In the assay on U-251, the GI50 is 13.7 µM (inactive).

Consider `Nc1nc(-c2ccccc2/N=N/N2CCCC2)nc2ccccc12`, for which the GI50 was 2.38 µM (inactive) in the assay on 786-0; 7.76 µM (inactive) in the assay with A498; 2.62 µM (inactive) in the assay on A549; 2.52 µM (inactive) in the assay on ACHN; 11.8 µM (inactive) with BT-549; 4.14 µM (inactive) in the assay with CAKI-1. The GI50 is 2.56 µM (inactive) in the assay on COLO 205; 4.93 µM (inactive) in the assay with DU-145; 1.02 µM (active) in the assay with HCT-116; 2.91 µM (inactive) with IGROV-1; 3.05 µM (inactive) in the assay with K562; 3.48 µM (inactive) in the assay on MCF7. The GI50 in the assay with MDA-MB-435 was 2.56 µM (inactive); in the assay on MOLT-4, 1.16 µM (inactive); in the assay on NCI-H460, 2.92 µM (inactive); in the assay with NCI-H522 it was 4.28 µM (inactive); with OVCAR-5, 1.86 µM (inactive); with SK-OV-3 it was 9.1 µM (inactive). For the same compound, the GI50 in the assay with U-251 was 2.67 µM (inactive).

Turning to `[O-][Cl+3]([O-])([O-])[O-].[O-][Cl+3]([O-])([O-])[O-].c1ccn2c(N3CCOCC3)[n+]3c4ccccc4[n+]4c(N5CCOCC5)n5ccccc5c4c3c2c1`, the GI50 in the assay on 786-0, in the assay with A498, with A549, with ACHN, in the assay on BT-549 and in the assay with CAKI-1 was > 100 µM (inactive) each time. The GI50 in the assay with COLO 205 is 49.9 µM (inactive); in the assay on DU-145, > 100 µM (inactive); in the assay with HCT-116, > 100 µM (inactive); with HL-60, 71.6 µM (inactive); with IGROV-1 it was 66.2 µM (inactive); in the assay with K562 it was > 100 µM (inactive). The GI50 in the assay with MCF7 is 56.1 µM (inactive); with MDA-MB-435 it was > 100 µM (inactive); in the assay on MOLT-4 it was > 100 µM (inactive); in the assay with NCI-H460, > 100 µM (inactive); in the assay with NCI-H522 it was > 100 µM (inactive); in the assay on OVCAR-5, > 100 µM (inactive). In addition, the GI50 in the assay with U-251 is 50.6 µM (inactive).

As for `N/C(=N\O)N/N=C/c1cc(Br)cc(Br)c1O`, the GI50 is 1.91 µM (inactive) with 786-0; 3.96 µM (inactive) in the assay on A498; 5.27 µM (inactive) in the assay with A549; 1.95 µM (inactive) in the assay on ACHN; 2.44 µM (inactive) in the assay on BT-549; 0.461 µM (active) with CAKI-1. Moreover, the GI50 is 13 µM (inactive) in the assay with COLO 205; 3.19 µM (inactive) in the assay with DU-145; 4.24 µM (inactive) in the assay on HCT-116; 0.507 µM (active) in the assay with IGROV-1; 2.65 µM (inactive) in the assay on K562; 6.21 µM (inactive) in the assay on MCF7. In addition, the GI50 in the assay on MDA-MB-435 was 9.48 µM (inactive); in the assay on MOLT-4, 1.12 µM (active); in the assay on NCI-H460, 3.32 µM (inactive); with NCI-H522 it was 16.2 µM (inactive); in the assay on OVCAR-5 it was 9.86 µM (inactive); with SK-OV-3, 7.14 µM (inactive). In addition, the GI50 in the assay on U-251 was 2.78 µM (inactive).

On to `CCCC(O)c1cn(C(NC(=O)c2ccccc2)P(=O)(OCC)OCC)nn1` (centres undefined), for which the GI50 in the assay with 786-0, with A498, with A549, in the assay with ACHN, in the assay on BT-549 and with CAKI-1 was > 100 µM (inactive) in each case. Besides, the GI50 in the assay on COLO 205, in the assay with DU-145, in the assay on HCT-116, with HL-60, in the assay with IGROV-1 and in the assay with K562 was > 100 µM (inactive) throughout. In addition, the GI50 in the assay on MCF7, in the assay with MDA-MB-435, with MOLT-4, in the assay on NCI-H460, in the assay with NCI-H522 and in the assay on U-251 was > 100 µM (inactive) throughout.

As to `NC(=O)NCCSC1CCCCC1O` (centres undefined), the GI50 in the assay with 786-0, with A498, in the assay with A549, with ACHN, with BT-549 and in the assay with CAKI-1 was > 100 µM (inactive) in each case. Further, the GI50 in the assay with COLO 205, in the assay with DU-145, with HCT-116, in the assay on IGROV-1, in the assay on K562 and with MCF7 was > 100 µM (inactive) in each case. The GI50 is > 100 µM (inactive) with MDA-MB-435; 26.2 µM (inactive) in the assay on MOLT-4; > 100 µM (inactive) in the assay on NCI-H460; > 100 µM (inactive) with NCI-H522; > 100 µM (inactive) in the assay on OVCAR-5; > 100 µM (inactive) in the assay on SK-OV-3. In addition, the GI50 in the assay with U-251 was > 100 µM (inactive).
